Source: PubChem BioAssay (NCI)
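Protocol summary: plate cells (96-well), add compound at 5 concentrations, incubate 48 h, interpolate endpoints linearly. Abbreviation: GI50, concentration required for 50% inhibition of growth. At the TGI there is no net growth.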

How the values were obtained:
Assay in all cases: inhibition of tumour cell growth, NCI panel, 48 h
CAKI-1 renal = tested on: CAKI-1 renal
SF-295 CNS = tested on: SF-295 CNS
HL-60(TB) leukemia = tested on: HL-60(TB) leukemia
PC-3 prostate = tested on: PC-3 prostate
HCC-2998 colon = tested on: HCC-2998 colon
SK-OV-3 ovarian = tested on: SK-OV-3 ovarian
UO-31 renal = tested on: UO-31 renal
T-47D breast = tested on: T-47D breast
HOP-62 NSCLC = tested on: HOP-62 NSCLC
OVCAR-4 ovarian = tested on: OVCAR-4 ovarian
SR leukemia = tested on: SR leukemia
OVCAR-3 ovarian = tested on: OVCAR-3 ovarian
SF-539 CNS = tested on: SF-539 CNS
K-562 leukemia = tested on: K-562 leukemia
MDA-MB-468 breast = tested on: MDA-MB-468 breast
SNB-75 CNS = tested on: SNB-75 CNS
OVCAR-5 ovarian = tested on: OVCAR-5 ovarian
RXF 393 renal = tested on: RXF 393 renal
BT-549 breast = tested on: BT-549 breast
U251 CNS = tested on: U251 CNS
NCI/ADR-RES ovarian = tested on: NCI/ADR-RES ovarian
DU-145 prostate = tested on: DU-145 prostate
SK-MEL-2 melanoma = tested on: SK-MEL-2 melanoma
EKVX NSCLC = tested on: EKVX NSCLC
SK-MEL-28 melanoma = tested on: SK-MEL-28 melanoma
MALME-3M melanoma = tested on: MALME-3M melanoma
NCI-H23 lung = tested on: NCI-H23 lung
HT29 colon = tested on: HT29 colon
SF-268 CNS = tested on: SF-268 CNS
MOLT-4 leukemia = tested on: MOLT-4 leukemia

SMILES: c1ccc(C(=C(c2ccc(OCCN3CCCCC3)cc2)c2ccc(OCCN3CCCCC3)cc2)C2CCCC2)cc1
- TGI (CAKI-1 renal): > 18 µM
- GI50 (SF-295 CNS): 5.14 µM
- TGI (SF-295 CNS): > 18 µM
- GI50 (HL-60(TB) leukemia): 1680 nM
- TGI (HL-60(TB) leukemia): 5.42 µM
- GI50 (PC-3 prostate): 3.58 µM
- TGI (PC-3 prostate): 7.79 µM
- GI50 (HCC-2998 colon): 2830 nM
- TGI (HCC-2998 colon): 5.33 µM
- GI50 (SK-OV-3 ovarian): 4.27 µM
- TGI (SK-OV-3 ovarian): 11.8 µM
- GI50 (UO-31 renal): > 18 µM
- TGI (UO-31 renal): > 18 µM
- GI50 (T-47D breast): 3.98 µM
- TGI (T-47D breast): 15.4 µM
- GI50 (HOP-62 NSCLC): 5.01 µM
- TGI (HOP-62 NSCLC): > 18 µM
- GI50 (OVCAR-4 ovarian): 5.7 µM
- TGI (OVCAR-4 ovarian): > 18 µM
- GI50 (SR leukemia): 2990 nM
- TGI (SR leukemia): 8.46 µM
- GI50 (OVCAR-3 ovarian): 3.05 µM
- TGI (OVCAR-3 ovarian): 5.85 µM
- GI50 (SF-539 CNS): 2880 nM
- TGI (SF-539 CNS): 5.4 µM
- GI50 (K-562 leukemia): 1640 nM
- TGI (K-562 leukemia): > 18 µM
- GI50 (MDA-MB-468 breast): 2380 nM
- TGI (MDA-MB-468 breast): 5.19 µM
- GI50 (SNB-75 CNS): 1970 nM
- TGI (SNB-75 CNS): 13.8 µM
- GI50 (OVCAR-5 ovarian): 4.67 µM
- TGI (OVCAR-5 ovarian): > 18 µM
- GI50 (RXF 393 renal): 2910 nM
- TGI (RXF 393 renal): 7.11 µM
- GI50 (BT-549 breast): 2800 nM
- TGI (BT-549 breast): 5.38 µM
- GI50 (U251 CNS): 3.56 µM
- TGI (U251 CNS): 8.23 µM
- GI50 (NCI/ADR-RES ovarian): > 18 µM
- TGI (NCI/ADR-RES ovarian): > 18 µM
- GI50 (DU-145 prostate): 4.25 µM
- TGI (DU-145 prostate): 10.5 µM
- GI50 (SK-MEL-2 melanoma): 3.78 µM
- TGI (SK-MEL-2 melanoma): 9.2 µM
- GI50 (EKVX NSCLC): 8.68 µM
- TGI (EKVX NSCLC): > 18 µM
- GI50 (SK-MEL-28 melanoma): 3.03 µM
- TGI (SK-MEL-28 melanoma): 5.81 µM
- GI50 (MALME-3M melanoma): 2690 nM
- TGI (MALME-3M melanoma): 5.1 µM
- GI50 (NCI-H23 lung): 5.16 µM
- TGI (NCI-H23 lung): 17.9 µM
- GI50 (HT29 colon): 3.1 µM
- TGI (HT29 colon): 6.24 µM
- GI50 (SF-268 CNS): 3.53 µM
- TGI (SF-268 CNS): 9.09 µM
- GI50 (MOLT-4 leukemia): 2590 nM
- TGI (MOLT-4 leukemia): 7.72 µM
